{"source": "patent US20150051558A1", "about": "“COMPOSITION AND METHOD FOR CORNEAL PROLIFERATION” (UNIVERSITY OF CENTRAL FLORIDA RESEARCH FOUNDATION, INC., priority 2012, published 2015)", "key": {"[1]": {"system": "rat cornea", "assay": "Experiment 1: BrdU staining of cornea after MS-818 ophthalmic drops", "assay_type": "in vivo", "experimental": "(§1) Surgeries were performed to remove the left lachrymal gland from sixteen rats. MS-818 was then administered via ophthalmic drop to both eyes of twelve of the rats divided into three dosage groups, 1 mg/ml, 3 mg/ml, and 10 mg/ml. The remaining four rats served as a control group, receiving drops of phosphate buffered saline. The compound was administered three times over a period of three days. BrdU was administered during this time via intra-peritoneal injection. Rats were euthanized seven days after the first compound administration and underwent perfusion. Eyes were sliced in twenty micron slices using a cryostat. The slices were mounted on glass slides. The slides were then stained with monoclonal mouse anti BrdU primary antibody to test for the incorporation of BrdU into nuclei. TRITC conjugated donkey anti mouse secondary antibody was used to detect the primary antibody. Slides were stained with DAPI to visualize the nuclei. Images were captured of the slices in 100× magnification under TRITC, DAPI and FITC fluorescence."}, "[2]": {"system": "rat cornea", "assay": "Experiment 2: BrdU staining of cornea after MS-818 ophthalmic drops", "assay_type": "in vivo", "experimental": "as §1, with “According to another example similar to experiment 1, surgeries” for “Surgeries”, “groups, 100 μg/ml, 300 μg/ml, and” for “groups,”, “1” for “1 mg/ml, 3 mg/ml, and 10”"}}, "note": "“Also recorded” adds a separate entry of the source."}
{"smiles": "CN1Cc2nc(N3CCCCC3)ncc2C1=O.O=C(O)/C=C\\C(=O)O", "note": "[MS-818, 2-piperadino-6-methyl-5-oxo-5,6-dihydro-(7H) pyrrole-[3,4-d]pyrimidine maleate]", "values": [{"measurement": "proliferation in the non-injured eyes vs non-drug receiving control group", "setting": "[1]; ophthalmic drops, three dosage groups, preliminary results", "result": "marked increase in proliferation"}, {"measurement": "BrdU positive signaling within the cornea (cell proliferation)", "setting": "[1]; rat, eye drop, high dosage (1 mg/ml), three times over three days, euthanized seven days after first administration, non surgical eye, FIG. 1B vs control FIG. 1A", "result": "significantly increased BrdU positive signaling"}, {"measurement": "cell proliferation (BrdU staining) in cornea vs control animal", "setting": "[2]; eye drop 100 μg/ml, 300 μg/ml, 1 mg/ml, three times over three days, non surgical eye, FIG. 4", "result": "significant increase in cell proliferation over the control animal"}, {"measurement": "number of nuclei positive for BrdU per field of view in the cornea", "setting": "[2]; eye drop, low, medium and high dose vs control, n=6, FIG. 5", "result": "significantly (p<0.05) higher than the control; also recorded: significant and dose dependent increase"}]}
